Data taken from article PMC11339918, “Extracellular Domain of IL-10 Receptor Chain-2 (IL-10R2) and Its Arginine-Containing Peptides Are Susceptible Substrates for Human Prostate Kallikrein-2 (KLK2)” (Biochemistry, 2024).
Non-standard residues stand in square brackets, D forms with d. No end group written: not given here. *: point of attachment. EDDnp = O=[N+]([O-])c1ccc(NCCN*)c([N+](=O)[O-])c1; 2Abz = Nc1ccccc1C(=O)O

Assays:
[1] = test system: KLK3; assay: Hydrolysis by KLK3 of IL-10R2-derived FRET peptides containing F or Y; assay type: biochemical, human; conditions: 2 nM KLK3, 20 mM Tris-HCl, 1 mM EDTA, 1.5 M sodium citrate, pH 7.8, 37 °C
Source text: Obtained from a baculovirus-insect cell line system, purified, and activated as previously reported,[14] MUGB (4-methylumbelliferyl p-guanidino benzoate hydrochloride) was used for the spectrofluorimetric determination of molar concentrations of active KLK2.[15] KLK3 was obtained and assayed as previously reported.[3] […]
FRET Peptides with F FRET Peptides with Y
Abz-MNSVNFKNIL-Q-E DD np Abz-FTAQYLSYR-Q-EDD np
Abz-WESPAFAKGN-Q-EDD np Abz – AQYL SYRIF-Q-EDDnp
Abz-KGNLTFT AQY-Q-EDDnp Abz-SSLSKYGDHT-Q-EDD np
Abz-LSYRIFQDKA-Q-EDD np Abz-KIENEYET WT-Q-EDDnp
Abz-LTEADFSSLS-Q-EDD np Abz-TMKNVYNSWT-Q-ED Dnp
Abz-RVRAEFADEH-Q-EDDnp Abz-NSWTYNVQ-Q-EDDnp
Abz-HSDWVNITFAPVD-Q-EDDnp Abz-NVQYWKNG-Q-EDDnp
Abz-SLHMRFL AP K-Q-EDD np Abz-QITPQYDFEV-Q-EDD np
Abz-GTDEKFQ IT P-Q-EDD np Abz – EPWTTYAVQR-Q-EDD np
Conditions of reactions: 2 nM KLK3, 20 mM Tris -HCl, 1 mM EDTA, 1.5 M sodium citrate, pH 7.8, at 37 °C.
The sequence o f FRET peptide with F or Y in the middle of the sequence can be identiﬁed in the IL-
10R2 ectodomain sequence around F or Y, as shown b e l o w. Cysteines were substituted by Alanine (A)
1 MAWSLGSWLGGCLLVSALGMVPPPENVRMNSVNFKNILQWESPAFAKGNLTFTAQYLSYR.
61 IFQDKCMNTTLTECDFSSLSKYGDHTLRVRAEFADEHSDWVNITFCPVDDTIIGPPGMQV.
121 EVL ADSLHMR FL APKIENEY ET W TMKNVYN SWTYNVQYWK NGTDEKFQIT PQYDFEVLRN.
181 LEPW TTYCVQ VRGF LPDRNK AGEWSEPVCE QTTHDETVPS.

[2] = test system: KLK2; assay: Effects of salts and glycosaminoglycans on KLK2 hydrolysis of Abz-KLRSSKQ-EDDnp; assay type: biochemical, human; conditions: 20 mM Tris–HCl, 1 mM EDTA, 5.0 μM Abz-KLRSSKQ-EDDnp, [E] = 1.58 nM, 37 °C, pH 8.0
Description: Bovine lung heparin was prepared as previously reported;[16] dermatan sulfate (12 000 Da) and chondroitin sulfate (25 000 Da) were purchased from Seikagaku Kogyo Co. (Tokyo, Japan), and heparan sulfate (16 000 Da) from the bovine lung was a generous gift from Dr. P. Bianchini (Opocrin Research Laboratories, Modena, Italy).
Figure 1 KLK2 hydrolysis of Abz-KLRSSKQ-EDDnp. (A) Effects of sodium citrate, sodium sulfate, and sodium chloride on the FRET-peptide hydrolysis by KLK2. (B) pH profile for the KLK2 activity. (C) Effects of glycosaminoglycans on KLK2 activity. Assays were carried out in 20 mM Tris–HCl, 1 mM EDTA, and 5.0 μM substrate; [E] = 1.58 nM at 37 °C and pH 8.0 for experiments in (A and C).

[3] = target: T1, Recombinant KLK2 (Homo sapiens, UniProt P20151); assay: Hydrolysis of FRET peptides by recombinant KLK2 (kinetic parameters); assay type: biochemical
T1 construct: made in house; host or cells: baculovirus-insect cell line system
Source text: Obtained from a baculovirus-insect cell line system, purified, and activated as previously reported,[14] MUGB (4-methylumbelliferyl p-guanidino benzoate hydrochloride) was used for the spectrofluorimetric determination of molar concentrations of active KLK2.[15] KLK3 was obtained and assayed as previously reported.[3]
All of the FRET peptides were obtained by solid-phase peptide synthesis. The purity of FRET peptides to 95% or higher was obtained by semipreparative HPLC on a C18 reversed-phase column and used as protease substrates, as previously reported.[5] Details about the purification and quality of the FRET peptides are provided in the Supporting Information. The enzymatic kinetic measurements were all performed with FRET peptides as previously described.[5]
Five series of FRET peptides derived from Abz-KLRSSK-Q-EDDnp were assayed with KLK2 in 20 mM Tris–HCl, pH 8.0, and 1 M sodium citrate. […] The specificity of subsites S3, S2, S1’, and S2’ was explored by the FRET peptide series Abz-XLRSSKQ-EDDnp (for S3), Abz-KXRSSKQ-EDDnp (for S2), Abz-KLRXSKQ-EDDnp (for S1’), and Abz-KLRSXKQ-EDDnp (for S2’). All of them were hydrolyzed only at R–S or R–X peptide bonds, and the kinetic parameters for their hydrolysis by KLK2 are listed in Table 1.

[4] = Table 3, FRET peptides derived from the IL-10R2 ectodomain
[5] = pH 8.0, 20 mM Tris–HCl, 1 M sodium citrate, 37 °C, KLK2 1.6 nM, three enzymatic reactions, standard errors 5% or less

T1 sequence (P20151 25-261): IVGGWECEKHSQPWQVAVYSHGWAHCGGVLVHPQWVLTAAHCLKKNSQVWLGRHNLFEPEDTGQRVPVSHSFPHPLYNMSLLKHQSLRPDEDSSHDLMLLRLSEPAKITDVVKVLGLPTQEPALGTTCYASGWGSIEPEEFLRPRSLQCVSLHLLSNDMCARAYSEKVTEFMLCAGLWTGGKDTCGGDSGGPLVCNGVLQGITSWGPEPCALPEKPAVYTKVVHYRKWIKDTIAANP

Abz-NVQYWKNG-Q-EDDnp [FRET peptide with Y derived from IL-10R2 ectodomain]
hydrolysis by KLK3 (in words) [1]: resistant to hydrolysis by KLK3

Abz-SSLSKYGDHT-Q-EDD np [Abz-SSLSKYGDHT-Q-EDDnp, FRET peptide with Y derived from IL-10R2 ectodomain]
hydrolysis by KLK3 (in words) [1]: resistant to hydrolysis by KLK3

Abz-HSDWVNITFAPVD-Q-EDDnp [FRET peptide with F derived from IL-10R2 ectodomain]
hydrolysis by KLK3 (in words) [1]: resistant to hydrolysis by KLK3

Abz-GTDEKFQ IT P-Q-EDD np [Abz-GTDEKFQITP-Q-EDDnp, FRET peptide with F derived from IL-10R2 ectodomain]
hydrolysis by KLK3 (in words) [1]: resistant to hydrolysis by KLK3

Abz-LSYRIFQDKA-Q-EDD np [Abz-LSYRIFQDKA-Q-EDDnp, FRET peptide with F derived from IL-10R2 ectodomain]
hydrolysis by KLK3 (in words) [1]: resistant to hydrolysis by KLK3

Abz – AQYL SYRIF-Q-EDDnp [Abz-AQYLSYRIF-Q-EDDnp, FRET peptide with Y derived from IL-10R2 ectodomain]
hydrolysis by KLK3 (in words) [1]: resistant to hydrolysis by KLK3

Abz-QITPQYDFEV-Q-EDD np [Abz-QITPQYDFEV-Q-EDDnp, FRET peptide with Y derived from IL-10R2 ectodomain]
hydrolysis by KLK3 (in words) [1]: resistant to hydrolysis by KLK3

Abz-LTEADFSSLS-Q-EDD np [Abz-LTEADFSSLS-Q-EDDnp, FRET peptide with F derived from IL-10R2 ectodomain]
hydrolysis by KLK3 (in words) [1]: resistant to hydrolysis by KLK3

Abz-KIENEYET WT-Q-EDDnp [Abz-KIENEYETWT-Q-EDDnp, FRET peptide with Y derived from IL-10R2 ectodomain]
hydrolysis by KLK3 (in words) [1]: resistant to hydrolysis by KLK3

Abz-NSWTYNVQ-Q-EDDnp [FRET peptide with Y derived from IL-10R2 ectodomain]
hydrolysis by KLK3 (in words) [1]: resistant to hydrolysis by KLK3

Abz-WESPAFAKGN-Q-EDD np (Abz-WESPAFAKGNQ-EDDnp) [Abz-WESPAFAKGN-Q-EDDnp, FRET peptide with F derived from IL-10R2 ectodomain]
hydrolysis by KLK3 (in words) [1]: resistant to hydrolysis by KLK3

Abz-RVRAEFADEH-Q-EDDnp [FRET peptide with F derived from IL-10R2 ectodomain]
hydrolysis by KLK3 (in words) [1]: resistant to hydrolysis by KLK3

Abz-VQVRGFLPDR-Q-EDD np [Abz-VQVRGFLPDR-Q-EDDnp, FRET peptide with F derived from IL-10R2 ectodomain]
hydrolysis by KLK3 (in words) [1]: resistant to hydrolysis by KLK3

Abz-T P QYDFEVLR-Q-EDDnp [Abz-TPQYDFEVLR-Q-EDDnp, FRET peptide with F derived from IL-10R2 ectodomain]
hydrolysis by KLK3 (in words) [1]: resistant to hydrolysis by KLK3

Abz-SLHMRFL AP K-Q-EDD np [Abz-SLHMRFLAPK-Q-EDDnp, FRET peptide with F derived from IL-10R2 ectodomain]
hydrolysis by KLK3 (in words) [1]: resistant to hydrolysis by KLK3

O=C([O-])CC(O)(CC(=O)[O-])C(=O)[O-].[Na+].[Na+].[Na+] [sodium citrate]
effect of salt on KLK2 activity [2]: ten times more efficient activator of KLK2 than sodium sulfate

Abz-TMKNVYNSWT-Q-ED Dnp [Abz-TMKNVYNSWT-Q-EDDnp, FRET peptide with Y derived from IL-10R2 ectodomain]
hydrolysis by KLK3 (in words) [1]: resistant to hydrolysis by KLK3

Abz-KGNLTFT AQY-Q-EDDnp [Abz-KGNLTFTAQY-Q-EDDnp, FRET peptide with F derived from IL-10R2 ectodomain]
hydrolysis by KLK3 (in words) [1]: resistant to hydrolysis by KLK3

Abz-MNSVNFKNIL-Q-E DD np [Abz-MNSVNFKNIL-Q-EDDnp, FRET peptide with F derived from IL-10R2 ectodomain]
hydrolysis by KLK3 (in words) [1]: resistant to hydrolysis by KLK3

Abz – EPWTTYAVQR-Q-EDD np [Abz-EPWTTYAVQR-Q-EDDnp, FRET peptide with Y derived from IL-10R2 ectodomain]
hydrolysis by KLK3 (in words) [1]: resistant to hydrolysis by KLK3

dermatan sulfate
effect of glycosaminoglycan on KLK2 activity [2]: activate KLK2 in sub- and micromolar concentrations, respectively

Abz-SYRIFQ-Q-EDDnp [FRET peptide derived from the IL-10R2 ectodomain, ^58SYRI^62F]
Km [3, 4]: 0.95 µM | kcat [3, 4]: 7.3 s^–1 | kcat/Km [3, 4]: 7684 mM s–1

Abz-KLRXSKQ-EDDnp, X = N: FRET peptide, S1’ series, X = N ([2Abz]KLRNSKQ-EDDnp)
Km [3, 5]: 8.6 µM | kcat [3, 5]: 14.8 s^–1 | kcat/Km [3, 5]: 1733 s^–1 mM^–1

Abz-KXRSSKQ-EDDnp, X = G: FRET peptide, S2 series, X = G ([2Abz]KGRSSKQ-EDDnp)
Km [3, 5]: 12.4 µM | kcat [3, 5]: 1.0 s^–1 | kcat/Km [3, 5]: 81 s^–1 mM^–1

Abz-KLRSXKQ-EDDnp, X = I: FRET peptide, S2’ series, X = I ([2Abz]KLRSIKQ-EDDnp)
Km [3, 5]: 2.8 µM | kcat [3, 5]: 4.4 s^–1 | kcat/Km [3, 5]: 1571 s^–1 mM^–1

Abz-KLRSXKQ-EDDnp, X = E: FRET peptide, S2’ series, X = E ([2Abz]KLRSEKQ-EDDnp)
Km [3, 5]: 8 µM | kcat [3, 5]: 7.1 s^–1 | kcat/Km [3, 5]: 888 s^–1 mM^–1

heparan sulfate
effect of glycosaminoglycan on KLK2 activity [2]: activate KLK2 in sub- and micromolar concentrations, respectively

heparin
effect of glycosaminoglycan on KLK2 activity [2]: almost no effect

Abz-XLRSSKQ-EDDnp, X = Q: FRET peptide, S3 series, X = Q (Abz-QLRSSKQ-EDDnp)
Km [3, 5]: 5.9 µM | kcat [3, 5]: 25.7 s^–1 | kcat/Km [3, 5]: 4356 s^–1 mM^–1

Abz-KLRSXKQ-EDDnp, X = Q: FRET peptide, S2’ series, X = Q ([2Abz]KLRSQKQ-EDDnp)
Km [3, 5]: 5.2 µM | kcat [3, 5]: 6.5 s^–1 | kcat/Km [3, 5]: 1250 s^–1 mM^–1

Abz-FTAQYLSYR-Q-EDD np [Abz-FTAQYLSYR-Q-EDDnp, FRET peptide with Y derived from IL-10R2 ectodomain]
hydrolysis by KLK3 (in words) [1]: resistant to hydrolysis by KLK3

chondroitin sulfate
effect of glycosaminoglycan on KLK2 activity [2]: inhibitory
